Structures are written as SMILES. Where only a bound is given, the exact number is not on record here.

By inhibition is commonly meant the drop in the measured response relative to a control, in per cent. In general, IC50 refers to the concentration that inhibits the measured activity by half.

Common to all, as to assay type: cell-based
The subject of experiment [1] is ERK activation (p-ERK). Briefly: p-ERK immunoblotting after CXCL8 stimulation. As to conditions: 2.5 μM compound 1 h then 100 ng/ml CXCL8 for 15 min; read-out: E. p-ERK inhibition - TIME. As to the method: Cells were lysed in buffer containing 3% SDS, 10% glycerol and 0.825 mM Na2HPO4. 30 to 50 μg of proteins separated on 10% SDS-PAGE, transferred onto a PVDF membrane and then exposed to the appropriate antibodies. Proteins were visualized with the ECL system using horseradish peroxidase-conjugated anti-rabbit or anti-mouse antibodies.
(§1) All compounds were evaluated in different experiments. Results are represented as the mean of three independent experiments. A. ARPE-19 cells were treated with dose response of compound for 48 h. Values are reported as IC50 measured with the XTT assay. B and C. ARPE-19 cells were treated with 5 μM (B) or 1 μM (C) compound then with 200 μM H2O2 for 2 h. ROS were analyzed by cytometry. […] As illustrated in FIG. 1A. D. ARPE-19 cells were treated with 2.5 μM compound for 48 h and the level of CXCL1 mRNA was evaluated by qPCR. […] As illustrated in FIG. 1B. E. TIME cells were pre-treated with 2.5 μM compound for 1 h then stimulated with 100 ng/ml CXCL8 for 15 min p-ERK levels were analyzed by immunoblotting. HSP90 served as loading control. […] As illustrated in FIG. 1C.
A general note: Immunoblotting shows a protein as a band on a membrane.

Experiment [2] has as its system ARPE-19 cells. Briefly: Cell viability (XTT assay). As to conditions: Homo sapiens, 48 h, read-out: A. Safety IC50 on ARPE-19 cells. As to the method:
ARPE-19 cells were incubated in a 96-well plate with different effectors for 48 hours. Fifty microliters of sodium 3′-[1-phenylaminocarbonyl)-3,4-tetrazolium]-bis(4-methoxy-6-nitro) benzene sulfonic acid hydrate (XTT) reagent was added to each well. The test is based on the cleavage of the yellow tetrazolium salt XTT to form an orange formazan dye by metabolically active cells. This bio-reduction occurs in viable cells only and is associated with NAD(P)H production through glycolysis. Therefore, the amount of formazan dye measured at 490 nm, correlates directly with the number of metabolically active cells reflecting cell proliferation, viability, and cytotoxicity. Each assay was performed in quadruplicate.
as §1
A general note: Formazan colour is commonly taken as a measure of viable cells.

In experiment [3] the test system is ROS. Briefly: ROS labeling by cytometry after H2O2. As to conditions: Homo sapiens, ARPE-19; for inhibition at 1 µM: 1 μM compound then 200 μM H2O2 for 2 h, read-out: C. ROS inhibition 1 μM - ARPE-19 cells; for inhibition at 5 µM: 5 μM compound then 200 μM H2O2 for 2 h, read-out: B. ROS inhibition 5 μM - ARPE-19 cells. As to the method: ARPE-19 cells were treated with MCK349 30 minutes then with 200 μM H2O2 for 2 h. 10 μM DCF-DA (2′,7′-Dichlorofluorescein diacetate) were added on cell media for 30 min. Cells were rinsed then detached (trypsin) and resuspended in PBS 0.5% BSA and 2 mM EDTA. The cells are analyzed by cytometry (ROS labeled with DCFDA-FITC).
as §1

In the case of `Cc1ccccc1Cn1nc(Nc2ccccc2)nc1N` [MCK250, 1-(2-methylbenzyl)-N^3-phenyl-1H-1,2,4-triazole-3,5-diamine], in experiment [1], the inhibition at 2.5 µM was below 50%. Besides, in experiment [2], the IC50 is above 25 µM. In experiment [3], the inhibition at 1 µM is at least 50% and the inhibition at 5 µM was at least 50%.

Take `Nc1nc(Nc2ccccc2)nn1Cc1cccc(Br)c1` [MCK264, 1-(3-bromobenzyl)-N^3-phenyl-1H-1,2,4-triazole-3,5-diamine]: the inhibition at 2.5 µM in experiment [1] is at least 50%. For the same compound, in experiment [2], the IC50 is above 25 µM. For the same compound, in experiment [3], the inhibition at 1 µM was at least 50% and the inhibition at 5 µM is at least 50%.

As to `Nc1nc(Nc2ccccn2)nn1Cc1ccc([N+](=O)[O-])cc1` [MCK290, 1-(4-nitrobenzyl)-N^3-(pyridin-2-yl)-1H-1,2,4-triazole-3,5-diamine], in experiment [1], the inhibition at 2.5 µM was at least 50%. Besides, the IC50 in experiment [2] was above 25 µM. Also, in experiment [3], the inhibition at 1 µM was at least 50% and the inhibition at 5 µM was at least 50%.

Consider `Nc1nc(Nc2ccc(Br)cc2)n(Cc2cccc(Br)c2)n1` [MCK345, 1-(3-bromobenzyl)-N^5-(4-bromophenyl)-1H-1,2,4-triazole-3,5-diamine], for which, in experiment [1], the inhibition at 2.5 µM was at least 50%. Moreover, in experiment [2], the IC50 was above 25 µM. Further, in experiment [3], the inhibition at 1 µM was at least 50% and the inhibition at 5 µM was at least 50%.

With `COC(=O)c1ccc(Nc2nc(N)n(Cc3cccc(Br)c3)n2)cc1` [MCK348, methyl-4-((5-amino-1-(3-bromobenzyl)-1H-1,2,4-triazol-3-yl)amino)benzoate], in experiment [1], the inhibition at 2.5 µM is at least 50%. Moreover, the IC50 in experiment [2] is above 25 µM. For the same compound, in experiment [3], the inhibition at 1 µM is at least 50% and the inhibition at 5 µM was at least 50%.

Consider `Nc1nc(Nc2ccccc2)nn1Cc1ccccc1[N+](=O)[O-]` [MCK297, 1-(2-nitrobenzyl)-N^3-phenyl-1H-1,2,4-triazole-3,5-diamine], for which the inhibition at 2.5 µM in experiment [1] was at least 50%. Moreover, the IC50 in experiment [2] is above 25 µM. In experiment [3], the inhibition at 1 µM was below 50% and the inhibition at 5 µM was below 50%.

Turning to `Nc1nc(Nc2ccccc2)nn1CCc1ccccc1` [MCK301, 1-phenethyl-N^3-phenyl-1H-1,2,4-triazole-3,5-diamine], in experiment [1], the inhibition at 2.5 µM was below 50%. Besides, in experiment [2], the IC50 is above 25 µM. Moreover, in experiment [3], the inhibition at 1 µM is below 50% and the inhibition at 5 µM was below 50%.

Take `Nc1nc(Nc2ccccc2)nn1Cc1c(Cl)cccc1Cl` [MCK268, 1-(2,6-dichlorobenzyl)-N^3-phenyl-1H-1,2,4-triazole-3,5-diamine]: the inhibition at 2.5 µM in experiment [1] was at least 50%. For the same compound, the IC50 in experiment [2] was above 25 µM. Besides, in experiment [3], the inhibition at 1 µM was below 50% and the inhibition at 5 µM is at least 50%.

On to `Nc1nc(Nc2ccccn2)nn1Cc1cccc(Br)c1` [MCK276, 1-(3-bromobenzyl)-N^3-(pyridin-2-yl)-1H-1,2,4-triazole-3,5-diamine], for which, in experiment [1], the inhibition at 2.5 µM is at least 50%. The IC50 in experiment [2] is above 25 µM. Besides, in experiment [3], the inhibition at 1 µM was below 50% and the inhibition at 5 µM was below 50%.

In the case of `Cc1ccc(Nc2nc(N)nn2Cc2cccc(Br)c2)cc1` [MCK341, 1-(3-bromobenzyl)-N^5-(4-methylphenyl)-1H-1,2,4-triazole-3,5-diamine], the inhibition at 2.5 µM in experiment [1] is below 50%. The IC50 in experiment [2] was above 25 µM. Besides, in experiment [3], the inhibition at 1 µM was at least 50% and the inhibition at 5 µM is at least 50%.

As to `Nc1nc(Nc2ccccc2)n(Cc2cccc(Br)c2)n1` [MCK339, 1-(3-bromobenzyl)-N^5-phenyl-1H-1,2,4-triazole-3,5-diamine], the inhibition at 2.5 µM in experiment [1] was below 50%. Further, the IC50 in experiment [2] is above 25 µM. Besides, in experiment [3], the inhibition at 1 µM is below 50% and the inhibition at 5 µM was at least 50%.

With `Nc1nc(Nc2ccccn2)nn1Cc1c(Cl)cccc1Cl` [MCK278, 1-(2,6-dichlorobenzyl)-N^3-(pyridin-2-yl)-1H-1,2,4-triazole-3,5-diamine], the inhibition at 2.5 µM in experiment [1] is at least 50%. In addition, the IC50 in experiment [2] was above 25 µM. Besides, in experiment [3], the inhibition at 1 µM was below 50% and the inhibition at 5 µM was below 50%.

Regarding `Nc1nc(Nc2ccccn2)nn1Cc1cccc([N+](=O)[O-])c1` [MCK292, 1-(3-nitrobenzyl)-N^3-(pyridin-2-yl)-1H-1,2,4-triazole-3,5-diamine], in experiment [1], the inhibition at 2.5 µM is at least 50%. Besides, the IC50 in experiment [2] was above 25 µM. Moreover, in experiment [3], the inhibition at 1 µM was below 50% and the inhibition at 5 µM is below 50%.

In the case of `Nc1nc(Nc2ccccc2)n(CCc2ccccc2)n1` [MCK300, 1-phenethyl-N^5-phenyl-1H-1,2,4-triazole-3,5-diamine], in experiment [1], the inhibition at 2.5 µM is at least 50%. Moreover, in experiment [2], the IC50 is above 25 µM. In experiment [3], the inhibition at 1 µM is below 50% and the inhibition at 5 µM was below 50%.

On to `Nc1nc(Nc2ccccn2)nn1Cc1ccc(Cl)cc1` [MCK280, 1-(4-chlorobenzyl)-N^3-(pyridin-2-yl)-1H-1,2,4-triazole-3,5-diamine], for which the inhibition at 2.5 µM in experiment [1] is at least 50%. For the same compound, the IC50 in experiment [2] was above 25 µM. Further, in experiment [3], the inhibition at 1 µM was below 50% and the inhibition at 5 µM is below 50%.

For the compound `Nc1nc(Nc2ccccn2)nn1Cc1cc(F)cc(F)c1` [MCK283, 1-(3,5-difluorobenzyl)-N^3-(pyridin-2-yl)-1H-1,2,4-triazole-3,5-diamine], in experiment [1], the inhibition at 2.5 µM is at least 50%. For the same compound, in experiment [2], the IC50 is above 25 µM. Also, in experiment [3], the inhibition at 1 µM is below 50% and the inhibition at 5 µM is below 50%.

As for `Nc1nc(Nc2ccc(Cl)cc2)n(Cc2cccc(Br)c2)n1` [MCK343, 1-(3-bromobenzyl)-N^5-(4-chlorophenyl)-1H-1,2,4-triazole-3,5-diamine], the inhibition at 2.5 µM in experiment [1] is at least 50%. Besides, the IC50 in experiment [2] is above 25 µM. Moreover, in experiment [3], the inhibition at 1 µM was below 50% and the inhibition at 5 µM was at least 50%.

As to `Nc1nc(Nc2ccccn2)nn1Cc1ccc(F)cc1F` [MCK284, 1-(2,4-difluorobenzyl)-N^3-(pyridin-2-yl)-1H-1,2,4-triazole-3,5-diamine], the inhibition at 2.5 µM in experiment [1] is at least 50%. Also, the IC50 in experiment [2] was above 25 µM. In experiment [3], the inhibition at 1 µM was below 50% and the inhibition at 5 µM was below 50%.

Consider `Nc1nc(Nc2ccccn2)nn1Cc1ccccc1[N+](=O)[O-]` [MCK289, 1-(2-nitrobenzyl)-N^3-(pyridin-2-yl)-1H-1,2,4-triazole-3,5-diamine], for which the inhibition at 2.5 µM in experiment [1] is below 50%. Further, the IC50 in experiment [2] was above 25 µM. In experiment [3], the inhibition at 1 µM is at least 50% and the inhibition at 5 µM is at least 50%.

On to `COc1cc(Cn2nc(Nc3ccccc3)nc2N)cc(OC)c1OC` [MCK298, N^3-phenyl-1-(3,4,5-trimethoxybenzyl)-1H-1,2,4-triazole-3,5-diamine], for which, in experiment [1], the inhibition at 2.5 µM is at least 50%. The IC50 in experiment [2] is above 25 µM. In experiment [3], the inhibition at 1 µM is below 50% and the inhibition at 5 µM was below 50%.

For `Nc1nc(Nc2ccccc2)nn1Cc1ccccc1` [MCK249, 1-benzyl-N^3-phenyl-1H-1,2,4-triazole-3,5-diamine], the inhibition at 2.5 µM in experiment [1] was below 50%. In experiment [2], the IC50 is above 25 µM. Besides, in experiment [3], the inhibition at 1 µM was below 50% and the inhibition at 5 µM is at least 50%.

Take `Nc1nc(Nc2cccnc2)nn1Cc1cccc(Br)c1` [MCK351, 1-(3-bromobenzyl)-N^3-(pyridin-3-yl)-1H-1,2,4-triazole-3,5-diamine]: the inhibition at 2.5 µM in experiment [1] was at least 50%. Besides, the IC50 in experiment [2] was above 25 µM. Further, in experiment [3], the inhibition at 1 µM is below 50% and the inhibition at 5 µM was below 50%.

These data come from patent publication US20260284014A1, “3,5-DIAMINOTRIAZOLE DERIVATIVES AND USES THEREOF FOR TREATING OCULAR DISEASES” (CENTRE NATIONAL DE LA RECHERCHE SCIENTIFIQUE, priority 2023, published 2026).
